Where two headings read alike, the source gives them in different places.

From US20240300886A1, “ARYLCYCLOHEXYLAMINE DERIVATIVES AND THEIR USE IN THE TREATMENT OF PSYCHIATRIC DISORDERS” (GILGAMESH PHARMACEUTICALS, INC., priority 2021, published 2024) come the findings set out here.

The test system of data set [1] is immobility time in the FST. Briefly: Forced swim test (FST) in rats. Format: in vivo, Sprague-Dawley rats. The following applies: s.c., 23.5-h pre-treatment time. As to the method:
Disclosed compounds were tested in the forced swim test (FST) in rats with a 23.5-h pre-treatment time according to the following procedures.
Animals. Male Sprague-Dawley rats, aged 8-10 weeks, were used in the experiments. Animals were housed in groups of 2 under controlled temperature (22±3° C.) and relative humidity (30-70%) conditions, with 12-hour light/dark cycles, and with ad libitum food and water. All efforts were made to minimize suffering.
Drugs and Drug Administration. Test compounds, saline vehicle, and the positive control desipramine were administered subcutaneously (s.c.), with doses calculated based on the freebase. Normal saline was used as the vehicle for compounds provided as the HCl salt, while saline acidified with 1-2 molar equivalents of HCl was used as the vehicle for compounds provided as the freebase (to form the soluble HCl salt in situ). All compounds were administered at a volume of 5 mL/kg. Test compounds and vehicle were administered 0.5 h after the start of the training swim (Swim 1) and 23.5 h before the test swim (Swim 2). […]
Behavioral scoring was conducted by observers who were blind to the treatment groups. Animals were continuously observed during Swim 2 and the total time spent engaging in the following behaviors was recorded: immobile, swimming, and climbing. […]

Data set [2] is described as follows: Comparative oral pharmacokinetics of 2R, 2S and 2-F-DCK in mice. The following applies: 10 mg/kg po; for Cmax / half-life / AUC(0-t): male, C57BL/6; for half-life: read-out: t1/2 (po); for AUC(0-t): read-out: AUC0-last (po) (converted). Format: in vivo, C57BL/6 mice. How it is done: Animals. Male C57BL/6 mice were used in these studies. Aminals were randomly assigned to treatment groups and were fasted for 4 h before dosing.
Drugs. Test compounds were dissolved in a vehicle consisting of normal saline, They were then administered orally (po) at a dose of 10 mg/kg (calculated based on freebase) and at a volume of 10 mL/kg body weight.
Sample Collection and Bioanalysis. Blood samples (approximately 60 μL) were collected under light isoflurane anesthesia (Surgivet®) from the retro orbital plexus at 0.08, 0.25, 0.5, 1, 2, 4, 8, and 24 h (4 animals per time point). Immediately after blood collection, plasma was harvested by centrifugation at 4,000 rpm for 10 min at 4° C. and samples were stored at −70±10° C. until bioanalysis. Following blood collection, animals were immediately sacrificed, the abdominal vena-cava was cut open, and the whole body was perfused from the heart using 10 mL of normal saline, and brain samples were collected from all animals. After isolation, brain samples were rinsed three times in ice-cold normal saline (for 5-10 seconds/rinse using ˜5-10 mL normal saline in disposable petri dish for each rinse) and dried on blotting paper. Brain samples were homogenized using ice-cold phosphate-buffered saline (pH 7.4). Total homogenate volume was three times the tissue weight. All homogenates were stored at −70±10° C. until bioanalysis. For bioanalysis, 25 μL aliquots of plasma/brain study samples or spiked plasma/brain calibration standards were added to individual pre-labeled micro-centrifuge tubes followed by 100 μL of an internal standard solution (glipizide, 500 ng/mL in acetonitrile) except for blanks, where 100 μL of acetonitrile was added. Samples were vortexed for 5 minutes and then centrifuged for 10 minutes at 4,000 rpm at 4° C. Following centrifugation, 100 μL of each clear supernatant was transferred to a 96 well plate and analyzed with a fit-for-purpose LC-MS/MS method, with authentic samples of each analyte used for calibration and identification.
Data Analysis. Pharmacokinetic parameters were estimated using the non-compartmental analysis tool of Phoenix® WinNonlin software (Ver 8.0).

Data set [3] addresses serotonin transporter (SERT) (Homo sapiens (Human), UniProt P31645). Briefly: SERT competition radioligand binding ([3H]imipramine). To be noted: for Ki: Human recombinant (CHO cells), 2.0 nM [3H]imipramine. As to the method: Disclosed compounds were tested for their binding affinity at the serotonin transporter (SERT) using a competition radioligand binding assay (Eurofins Cerep). Assay conditions are described in Table 16 below.

Data set [4] addresses recombinant human NMDA receptor (GRIN1/GRIN2B) (Homo sapiens (Human), UniProt Q05586+Q13224). The data set is described as follows: Unblocking kinetics at the NMDA receptor in Xenopus laevis oocytes (two-electrode voltage clamp). Format: cell-based. The following applies: for Unblocking T1/2 ± SEM: compounds applied at 3×IC50, -70 mV, n ≥ 5. How it is done: Compounds 2R, 2S, and 2-(2-fluorophenyl)-2-(methylamino)cyclohexan-1-one 2-F-DCK were tested for unblocking kinetics at the NMDA receptor in Xenopus laevis oocytes expressing recombinant human NMDA receptor (GRIN1/GRIN2B) (Table 22).
Experimental Procedure. Oocytes were harvested from adult Xenopus laevis and incubated in 96 well plates for two to four days prior to recordings. Plasmids containing cDNA encoding for human NMDA receptor subunits GRIN1 and GRIN2B were transcribed using the mMessage mMachine T7 transcription kit (Ambion, USA). The Roboocyte automated injection system was used for injection of cRNA coding for hNMDA receptor subunits at a concentration of 100 ng/μL per subunit. Oocytes were clamped to a holding potential of −70 mV and induced currents after compound application were sampled at 200 Hz at room temperature. Agonist induced currents were recorded with a two-electrode voltage clamp. To determine the unblocking kinetics, glutamate and glycine (3 and 10 μM, respectively) were applied to the oocytes and the current recorded for 90 s. Then, compounds were applied at 3×IC50 for 120 s and the currents recorded.
Background: In two-electrode clamp one electrode senses voltage and the other passes current.

Chain of recombinant human NMDA receptor (GRIN1/GRIN2B) (Q13224 whole entry, looked up, other chains not shown): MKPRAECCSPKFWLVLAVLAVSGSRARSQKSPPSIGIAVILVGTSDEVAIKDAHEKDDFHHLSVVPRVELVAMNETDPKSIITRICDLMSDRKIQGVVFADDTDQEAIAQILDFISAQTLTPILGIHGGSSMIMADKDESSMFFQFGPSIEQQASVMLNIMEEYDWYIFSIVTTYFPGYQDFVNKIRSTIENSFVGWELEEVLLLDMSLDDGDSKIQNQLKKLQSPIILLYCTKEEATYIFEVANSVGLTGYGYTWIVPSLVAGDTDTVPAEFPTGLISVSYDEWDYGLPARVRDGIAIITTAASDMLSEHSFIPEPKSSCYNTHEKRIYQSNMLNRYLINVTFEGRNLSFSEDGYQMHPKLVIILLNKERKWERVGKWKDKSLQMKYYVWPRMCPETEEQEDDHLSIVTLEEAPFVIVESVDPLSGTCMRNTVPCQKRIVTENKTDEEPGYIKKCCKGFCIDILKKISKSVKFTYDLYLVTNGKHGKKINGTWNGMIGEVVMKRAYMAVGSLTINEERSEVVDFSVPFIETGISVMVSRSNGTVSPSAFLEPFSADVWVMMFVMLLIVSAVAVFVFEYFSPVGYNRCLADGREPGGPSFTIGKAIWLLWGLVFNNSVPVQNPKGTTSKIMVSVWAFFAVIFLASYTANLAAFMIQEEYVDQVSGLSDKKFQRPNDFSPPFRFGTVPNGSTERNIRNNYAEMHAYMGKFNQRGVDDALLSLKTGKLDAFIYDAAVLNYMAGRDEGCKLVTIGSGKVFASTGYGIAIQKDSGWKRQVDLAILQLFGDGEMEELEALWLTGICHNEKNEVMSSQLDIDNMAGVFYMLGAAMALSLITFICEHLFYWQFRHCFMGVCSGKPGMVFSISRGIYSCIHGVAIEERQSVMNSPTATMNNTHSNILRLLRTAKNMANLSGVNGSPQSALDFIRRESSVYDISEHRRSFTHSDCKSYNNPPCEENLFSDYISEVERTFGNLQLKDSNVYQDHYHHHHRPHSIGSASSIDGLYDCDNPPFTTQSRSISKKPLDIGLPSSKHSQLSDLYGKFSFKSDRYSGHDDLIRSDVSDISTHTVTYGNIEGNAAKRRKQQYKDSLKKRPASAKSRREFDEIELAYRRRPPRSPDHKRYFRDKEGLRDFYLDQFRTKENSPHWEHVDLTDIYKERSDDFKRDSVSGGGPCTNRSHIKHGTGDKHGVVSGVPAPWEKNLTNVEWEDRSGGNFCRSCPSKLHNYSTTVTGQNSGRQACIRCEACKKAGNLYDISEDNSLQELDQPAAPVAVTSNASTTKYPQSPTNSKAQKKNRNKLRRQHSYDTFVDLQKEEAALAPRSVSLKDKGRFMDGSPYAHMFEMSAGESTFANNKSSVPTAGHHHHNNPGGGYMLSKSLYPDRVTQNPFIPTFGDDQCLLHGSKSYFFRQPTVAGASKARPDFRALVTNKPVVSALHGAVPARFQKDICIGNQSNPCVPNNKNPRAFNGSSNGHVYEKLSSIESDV

As to `N[C@]1(c2ccc(F)cc2)CCCCC1=O` [Compound 1S, (S)-2-amino-2-(4-fluorophenyl)cyclohexan-1-one], in data set [1], the “immobility time in the FST relative to vehicle” value was “reduced immobility time”.
Usually Cmax stands for the peak of the concentration-time curve. Broadly, the Ki is the equilibrium dissociation constant of an inhibitor or competing ligand from its target. On to `CN[C@]1(c2ccc(F)cc2)CCCCC1=O` [Compound 2S, (S)-2-(4-fluorophenyl)-2-(methylamino)cyclohexan-1-one], for which, in data set [2] (mouse brain), the Cmax was 3540 ng/g, the half-life is 2.18 h and the “AUC0-last (po)” value was 123388 ng·min/g. Further, in data set [2] (mouse plasma), the Cmax came out at 1390 ng/mL, the AUC(0-t) was 940 ng·h/mL and the half-life came to 1.48 h. The inhibition constant Ki in data set [3] was found to be 12 µM. Moreover, in data set [4], the “half-life for unblocking compared to 2-F-DCK (in words)” value is listed as “much shorter half-life for unblocking” and the “Unblocking T1/2 ± SEM” value came out at 27.0 ± 6.1 s.
`CN[C@@]1(c2ccc(F)cc2)CCCCC1=O` [Compound 2R, (R)-2-(4-fluorophenyl)-2(methylamino)cyclohexan-1-one]: in data set [1], the “immobility time in the FST relative to vehicle” value is “reduced immobility time”. In addition, in data set [2] (mouse brain), the Cmax is 3280 ng/g, the half-life was 2.97 h and the “AUC0-last (po)” value was 200464 ng·min/g. Moreover, in data set [2] (mouse plasma), the Cmax is 1180 ng/mL, the AUC(0-t) was 1120 ng·h/mL and the half-life turned out to be 1.38 h. Also, in data set [3], the Ki is 6.2 µM. The “SERT binding potency relative to 2S (more potent)” value in data set [3] (human recombinant SERT) is reported as about 2 fold. Also, in data set [4], the “half-life for unblocking compared to 2-F-DCK (in words)” value is given as “much shorter half-life for unblocking” and the “Unblocking T1/2 ± SEM” value worked out at 22.7 ± 2.3 s.
